Activity calls are given as the source filed them.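 The calls were made as follows: active = compound cutting the HIV-1 infection reporter signal by at least half at some tested dose; inactive = the rest.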
Tested on: MAGI-CCR5 cells, HIV-1 Ba-L, beta-gal luminescence, 48 h
Assay: HIV-1 replication inhibition, CCR5-tropic virus, dose response, MAGI-CCR5 cells, HIV-1 Ba-L, 5% and 10% serum, set 2 (AID 2788)
[1] = measured here: IC50 in 10% serum

CS(=O)(=O)C1=NSC2=NC(=O)/C(=C\c3ccc(OS(=O)(=O)c4ccccc4)cc3)C(=N)N21
IC50: > 100 µM (inactive) | IC50 [1]: > 100 µM

COc1ccccc1NS(=O)(=O)c1cccc(-n2c(O)c(C=Nc3ccccc3C(=O)O)c3ccccc3c2=O)c1
IC50: 49 µM | IC50 [1]: 54.9 µM

COc1cc(C=NNc2ccc(Cl)c(C(=O)O)c2)ccc1OC(=O)c1ccc(F)cc1
IC50: 96.5 µM | IC50 [1]: > 100 µM

O=C(O)c1ccccc1C(=O)N(Cc1cccc(Oc2ccc(Cl)cc2)c1)[C@H]1CCCc2ccccc21
IC50: 16.2 µM | IC50 [1]: 38.2 µM

COc1cc(C=NNc2ccc(Cl)c(C(=O)O)c2)ccc1OC(=O)c1ccccc1F
IC50: > 100 µM (inactive) | IC50 [1]: > 100 µM

CCS(=O)(=O)C1=NSC2=NC(=O)/C(=C\c3ccc(OS(=O)(=O)c4ccccc4)cc3)C(=N)N21
IC50: > 100 µM (inactive) | IC50 [1]: > 100 µM

COc1ccc(C(=O)Oc2ccc(C=NNc3ccc(Cl)c(C(=O)O)c3)cc2OC)cc1
IC50: 56.4 µM | IC50 [1]: 81.4 µM

CC(C)S(=O)(=O)C1=NSC2=NC(=O)/C(=C\c3ccc(-c4cccc(C(=O)O)c4)o3)C(=N)N21
IC50: 45.6 µM | IC50 [1]: 50.5 µM

Cc1ccc(-n2cccc2/C=C2/C(=N)N3C(=NC2=O)SN=C3S(C)(=O)=O)cc1Cl
IC50: 47.3 µM | IC50 [1]: 60.8 µM

CC1(C)CC(=O)C2=C(C1)c1c(ccc3ccccc13)NC2c1cc([N+](=O)[O-])cc([N+](=O)[O-])c1O (stereo not drawn)
IC50: 15.4 µM | IC50 [1]: 35.6 µM

Cc1ccc(-n2c(O)c(C=Nc3ccccc3-c3n[nH]c(=S)[nH]c3=O)c3ccccc3c2=O)c(C)c1
IC50: 18 µM | IC50 [1]: 23 µM

Cc1cc(C)cc(-n2cccc2/C=C2/C(=N)N3C(=NC2=O)SN=C3S(C)(=O)=O)c1
IC50: 45.8 µM | IC50 [1]: 55.6 µM

CS(=O)(=O)C1=NSC2=NC(=O)/C(=C\c3cccn3-c3ccc(Cl)cc3)C(=N)N21
IC50: 63.8 µM | IC50 [1]: > 100 µM

O=C1NC(=S)N(c2ccc(F)cc2)C(=O)/C1=C/c1ccco1
IC50: 52.9 µM | IC50 [1]: 48.7 µM

COc1ccc(OC)c(N2C(=O)/C(=C/c3ccco3)C(=O)NC2=S)c1
IC50: 58.5 µM | IC50 [1]: 52.8 µM

CC(C)S(=O)(=O)C1=NSC2=NC(=O)/C(=C\c3ccc(-c4ccccc4)o3)C(=N)N21
IC50: 21.9 µM | IC50 [1]: 44 µM

O=C(O)c1cc(NN=Cc2ccc(-c3ccccc3)cc2)ccc1Cl
IC50: 94 µM | IC50 [1]: > 100 µM

O=c1c(=Cc2cc([N+](=O)[O-])cc([N+](=O)[O-])c2O)sc2nc3ccccc3n12
IC50: 52.1 µM | IC50 [1]: > 100 µM

Cc1ccc(S(=O)(=O)Oc2ccc(/C=C3/C(=N)N4C(=NC3=O)SN=C4S(C)(=O)=O)cc2)cc1
IC50: 78.5 µM | IC50 [1]: > 100 µM

Reference: PubChem BioAssay AID2788 (Southern Research Specialized Biocontainment Screening …, 2010)
